Test results from US10017403B2, “Use of peracetic acid/hydrogen peroxide and peroxide-reducing enzymes for treatment of drilling fluids, frac fluids, flowback water and disposal water” (ECOLAB USA INC., priority 2012, dated 2018).

How the values were obtained:
[1] = Catalase amount needed in POAA treated water, iodometric titration (Example 15); assay type: biochemical
Description: Field of use applications were analyzed to determine the amount of a peroxide-reducing enzyme necessary to obtain desired concentrations of both peracid and hydrogen peroxide in a treated water source. EnviroSan (POAA) peracid composition was added to water to reach the targeted POAA concentrations set forth in Table 18, and the concentration of both POAA and H2O2 were confirmed by iodometric titration. Then catalase (ES2000) was added to the solution, and the sample was stored under ambient conditions. The concentration of POAA and H2O2 were monitored by the iodometric conditions.

[2] = tested on: fracking water mixtures; assay: Micro efficacy in fracking water mixtures, baseline without catalase (Example 3); assay type: cell-based
Description: The impact of water pretreatment with 500 ppm of the EnviroSan product (75 ppm POAA) on micro efficacy in various fracking water mixtures were evaluated. The example represents a baseline data set of various water treatment options according to the invention. Table 2 and FIG. 3 show the average log reduction in various slick water treatments with varying ppm PAA (without any catalase treatment or pretreatment), representing a baseline data set.

[3] = Titration of POAA consumption in water mixtures (Example 6); assay type: physicochemical
[4] = tested on: Pseudomonas aeruginosa ATCC 15442; assay: Micro efficacy at 30 ppm POAA with or without catalase, with or without water pretreatment (Example 7); assay type: cell-based; conditions: no holding tank pretreatment, 30 ppm PAA
Description: All water mixtures were treated with an initial concentration of 30 ppm POAA EnviroSan, both with and without the addition of catalase. The data set evaluates whether there is a significant difference in micro activity generated between treatments of EnviroSan alone vs. EnviroSan pre-reduced with catalase.
All ratios of fracking water mixtures tested (100/0, 90/10, 80/20 & 70/30) were freshly mixed solutions, as well as solutions mixed and pretreated with 500 ppm EnviroSan product more than 1 hour before the start of the micro evaluation, in order to observe if a pretreatment step is of value for micro performance compared to those mixtures not pretreated. The test system (P. aeruginosa and natural water) described in Example 5 was again utilized. Water mixtures as outlined in Table 9 were provided (showing the percentage of 100 mL of each water sample type).
The testing methods of Example 5 were utilized for the chemically treated water samples, differing only in the combination of the 10 mL inoculated water mixtures with appropriate volumes of the EnviroSan with or without catalase to achieve 30 ppm POAA residual to each test tube in timed intervals and mixed. The methods of Example 5 were employed to make the EnviroSan with catalase stock solutions. In comparison, for the water samples that were not chemically treated, 9.9 mL of test water mixture was dispensed into 2 individual test tubes. 0.10 mL of an approximate 10^8 CFU/mL culture of P. aeruginosa was added in timed intervals and mixed thoroughly. Then 1 mL samples were neutralized in 9 mL of 0.5% sodium thiosulfate, followed by serial dilution and enumeration after 2.5 minutes, 5 minutes and 60 minute exposure times.
Table 11C show the use of 30 ppm POAA with/without catalase treatment compared for micro performance at both 2.5 and 5.0 minutes exposure times. Upon addition of 10-30% reuse water a defined drop in antimicrobial performance was observed over both 2.5 and 5 minutes as peracid was rapidly consumed if not pretreated with catalase. A residual of 30 ppm POAA at 5 minutes was needed to achieve the desired antimicrobial performance.

[5] = tested on: fracking water mixtures; assay: Micro efficacy: POAA dosed for 30 ppm residual versus POAA pretreated with catalase (Example 8); assay type: cell-based; conditions: no holding tank treatment
Description: A micro efficacy comparison of POAA added at levels to target 30 ppm POAA residuals at 5 minutes versus POAA pretreated with catalase was conducted as set forth in Table 12.

[6] = catalase 0.5 ppm, time 0 hr, series starting 14.6 ppm POAA, EnviroSan in water, ambient
[7] = catalase 0.5 ppm, time 0 hr, series starting 31.1 ppm POAA
[8] = catalase 0.5 ppm, time 1 hr, series starting 14.6 ppm POAA
[9] = catalase 0.5 ppm, time 1 hr, series starting 31.1 ppm POAA
[10] = catalase 0.5 ppm, time 2 hr, series starting 14.6 ppm POAA
[11] = catalase 0.5 ppm, time 2 hr, series starting 31.1 ppm POAA
[12] = catalase 0.5 ppm, time 3.6 hr, series starting 14.6 ppm POAA
[13] = catalase 0.5 ppm, time 3.6 hr, series starting 31.1 ppm POAA
[14] = catalase 1.0 ppm, time 0 hr, series starting 14.8 ppm POAA
[15] = catalase 1.0 ppm, time 0 hr, series starting 30.1 ppm POAA
[16] = catalase 1.0 ppm, time 1 hr, series starting 14.8 ppm POAA
[17] = catalase 1.0 ppm, time 1 hr, series starting 30.1 ppm POAA
[18] = catalase 1.0 ppm, time 2 hr, series starting 14.8 ppm POAA
[19] = catalase 1.0 ppm, time 2 hr, series starting 30.1 ppm POAA
[20] = catalase 1.0 ppm, time 3.6 hr, series starting 14.8 ppm POAA
[21] = catalase 1.0 ppm, time 3.6 hr, series starting 30.1 ppm POAA

For catalase, the “catalase concentration sufficient for treating the water source” value ([1]; ambient conditions) was about 1 ppm, the “H2O2 (ppm)” value [1, 6] was 12.0 ppm and the “POAA (ppm)” value [1, 6] was 14.6 ppm. The “H2O2 (ppm)” value [1, 7] was 22.8 ppm, the “POAA (ppm)” value [1, 7] was 31.1 ppm and the “H2O2 (ppm)” value [1, 8] was 7.5 ppm. The “POAA (ppm)” value [1, 8] was 15.0 ppm, the “H2O2 (ppm)” value [1, 9] was 12.2 ppm and the “POAA (ppm)” value [1, 9] was 32.0 ppm. For the same compound, the “H2O2 (ppm)” value [1, 10] was 6.5 ppm, the “POAA (ppm)” value [1, 10] was 14.3 ppm and the “H2O2 (ppm)” value [1, 11] was 7.8 ppm. The “POAA (ppm)” value [1, 11] was 29.2 ppm, the “H2O2 (ppm)” value [1, 12] was 1.8 ppm and the “POAA (ppm)” value [1, 12] was 14.2 ppm. The “H2O2 (ppm)” value [1, 13] was 3.4 ppm, the “POAA (ppm)” value [1, 13] was 30.6 ppm and the “H2O2 (ppm)” value [1, 14] was 12.6 ppm. For the same compound, the “POAA (ppm)” value [1, 14] was 14.8 ppm, the “H2O2 (ppm)” value [1, 15] was 23.3 ppm and the “POAA (ppm)” value [1, 15] was 30.1 ppm. The “H2O2 (ppm)” value [1, 16] was 3.7 ppm, the “POAA (ppm)” value [1, 16] was 14.6 ppm and the “H2O2 (ppm)” value [1, 17] was 7.6 ppm. The “POAA (ppm)” value [1, 17] was 31.0 ppm, the “H2O2 (ppm)” value [1, 18] was 1.1 ppm and the “POAA (ppm)” value [1, 18] was 14.2 ppm. The “H2O2 (ppm)” value [1, 19] was 2.3 ppm, the “POAA (ppm)” value [1, 19] was 29.6 ppm and the “H2O2 (ppm)” value [1, 20] was 0.4 ppm. For the same compound, the “POAA (ppm)” value [1, 20] was 15.9 ppm, the “H2O2 (ppm)” value [1, 21] was 0.0 ppm and the “POAA (ppm)” value [1, 21] was 29.3 ppm. The “selectivity of catalase for H2O2 over POAA” value ([1]; tested ambient conditions) was “selectively decomposes the H2O2 without having any negative impact on POAA stability” and the “lowest catalase concentration with which pond water with POAA and H2O2 could be treated” value ([1]; within 4 hours, ambient conditions) was 0.5 ppm.
With `CC(=O)OO` [POAA, peracetic acid] the “Avg. Log10 Reduction” value ([2]; 75 ppm PAA holding tank pretreatment, 10% reuse H2O, 29 ppm POAA, no catalase, 2.5 minutes) was 6.45 Log10, the “Avg. Log10 Reduction” value ([2]; 75 ppm PAA holding tank pretreatment, 10% reuse H2O, 29 ppm POAA, no catalase, 5 minutes) was 6.71 Log10 and the “Avg. Log10 Reduction” value ([2]; 75 ppm PAA holding tank pretreatment, 20% reuse H2O, 47 ppm PAA, no catalase, 2.5 minutes) was 6.42 Log10. For the same compound, the “Avg. Log10 Reduction” value ([2]; 75 ppm PAA holding tank pretreatment, 20% reuse H2O, 47 ppm PAA, no catalase, 5 minutes) was 6.55 Log10, the “Avg. Log10 Reduction” value ([2]; 75 ppm PAA holding tank pretreatment, 30% reuse H2O, 86 ppm POAA, no catalase, 2.5 minutes) was 6.47 Log10 and the “Avg. Log10 Reduction” value ([2]; 75 ppm PAA holding tank pretreatment, 30% reuse H2O, 86 ppm POAA, no catalase, 5 minutes) was 6.41 Log10. For the same compound, the “Avg. Log10 Reduction” value ([2]; no holding tank pretreatment, 0% reuse H2O, 22 ppm POAA, 2.5 minutes) was 5.53 Log10, the “Avg. Log10 Reduction” value ([2]; no holding tank pretreatment, 0% reuse H2O, 22 ppm POAA, 5 minutes) was 5.75 Log10 and the “Avg. Log10 Reduction” value ([2]; no holding tank pretreatment, 10% reuse H2O, 36 ppm POAA, 2.5 minutes) was 4.32 Log10. For the same compound, the “Avg. Log10 Reduction” value ([2]; no holding tank pretreatment, 10% reuse H2O, 36 ppm POAA, 5 minutes) was 4.72 Log10, the “Avg. Log10 Reduction” value ([2]; no holding tank pretreatment, 20% reuse H2O, 86 ppm POAA, 2.5 minutes) was 4.57 Log10 and the “Avg. Log10 Reduction” value ([2]; no holding tank pretreatment, 20% reuse H2O, 86 ppm POAA, 5 minutes) was 4.64 Log10. For the same compound, the “Avg. Log10 Reduction” value ([2]; no holding tank pretreatment, 30% reuse H2O, 138 ppm POAA, 2.5 minutes) was 4.12 Log10, the “Avg. Log10 Reduction” value ([2]; no holding tank pretreatment, 30% reuse H2O, 138 ppm POAA, 5 minutes) was 5.00 Log10 and the “Actual Titrated Concentration (ppm POAA)” value ([3]; 70% Fresh/30% Produced, desired 30 ppm POAA, 1 minutes) was 7 ppm. The “Actual Titrated Concentration (ppm POAA)” value ([3]; 70% Fresh/30% Produced, desired 30 ppm POAA, 5 minutes) was 0 ppm, the “Actual Titrated Concentration (ppm POAA)” value ([3]; 70% Fresh/30% Produced, desired 40 ppm POAA, 1 minutes) was 12 ppm and the “Actual Titrated Concentration (ppm POAA)” value ([3]; 70% Fresh/30% Produced, desired 40 ppm POAA, 5 minutes) was 0 ppm. The “Actual Titrated Concentration (ppm POAA)” value ([3]; 80% Fresh/20% Produced, desired 30 ppm POAA, 1 minutes) was 13 ppm, the “Actual Titrated Concentration (ppm POAA)” value ([3]; 80% Fresh/20% Produced, desired 30 ppm POAA, 5 minutes) was 0 ppm and the “Actual Titrated Concentration (ppm POAA)” value ([3]; 80% Fresh/20% Produced, desired 40 ppm POAA, 1 minutes) was 21 ppm. For the same compound, the “Actual Titrated Concentration (ppm POAA)” value ([3]; 80% Fresh/20% Produced, desired 40 ppm POAA, 5 minutes) was 2 ppm, the “Actual Titrated Concentration (ppm POAA)” value ([3]; 90% Fresh/10% Produced, desired 30 ppm POAA, 1 minutes) was 21 ppm and the “Actual Titrated Concentration (ppm POAA)” value ([3]; 90% Fresh/10% Produced, desired 30 ppm POAA, 5 minutes) was 8 ppm. For the same compound, the “Actual Titrated Concentration (ppm POAA)” value ([3]; 90% Fresh/10% Produced, desired 40 ppm POAA, 1 minutes) was 30 ppm, the “Actual Titrated Concentration (ppm POAA)” value ([3]; 90% Fresh/10% Produced, desired 40 ppm POAA, 5 minutes) was 16 ppm and the “Avg. Log10 Reduction” value ([4]; 0% reuse H2O, 2.5 minutes) was 4.64 Log10. For the same compound, the “Avg. Log10 Reduction” value ([4]; 0% reuse H2O, 5 minutes) was 6.32 Log10, the “Avg. Log10 Reduction” value ([4]; 10% reuse H2O, 2.5 minutes) was 3.09 Log10 and the “Avg. Log10 Reduction” value ([4]; 10% reuse H2O, 5 minutes) was 3.91 Log10. For the same compound, the “Avg. Log10 Reduction” value ([4]; 20% reuse H2O, 2.5 minutes) was 2.19 Log10, the “Avg. Log10 Reduction” value ([4]; 20% reuse H2O, 5 minutes) was 2.38 Log10 and the “Avg. Log10 Reduction” value ([4]; 30% reuse H2O, 2.5 minutes) was 1.88 Log10. The “Avg. Log10 Reduction” value ([4]; 30% reuse H2O, 5 minutes) was 1.93 Log10, the “Avg. Log10 Reduction” value ([5]; 10% reuse H2O, 46 ppm PAA, 2.5 minutes) was 4.32 Log10 and the “Avg. Log10 Reduction” value ([5]; 10% reuse H2O, 46 ppm PAA, 5 minutes) was 4.72 Log10. The “Avg. Log10 Reduction” value ([5]; 20% reuse H2O, 86 ppm PAA, 2.5 minutes) was 4.57 Log10, the “Avg. Log10 Reduction” value ([5]; 20% reuse H2O, 86 ppm PAA, 5 minutes) was 4.64 Log10 and the “Avg. Log10 Reduction” value ([5]; 30% reuse H2O, 138 ppm PAA, 2.5 minutes) was 4.12 Log10. The “Avg. Log10 Reduction” value ([5]; 30% reuse H2O, 138 ppm PAA, 5 minutes) was 5.00 Log10.
